Molecules are shown by their SMILES.

Data set [1] is described as follows: Postemergence herbicidal activity (% control) against dicot weeds. Conditions: post-emergence, 336 h; for activity at 4483.4 g/ha: read-out: Herbicidal activity (% control), postemergence, dicots, 4 lb./A., average, about two weeks after application; for activity at 2241.7 g/ha: read-out: Herbicidal activity (% control), postemergence, dicots, 2 lb./A., average, about two weeks after application.

For the next data set, the system named is rice. The data set can be described thus: Crop tolerance (selective herbicidal activity), rice. Type of data set: in vivo. Here is the method: (§1) The following test procedure is employed.
(§2) Following the general test procedure of Example 37, diphenyl ethers are evaluated for significant tolerance (as shown by 50% or less kill of the test crop at levels of application which give more than 50% kill of many or all of the weeds of Example 73) towards some or all of the following common agronomic crops (not all compounds tested against all crops): alfalfa, snapbeans, corn, cotton, cucumbers, peanuts, rape, rice, safflower, soybeans, tomatoes, and wheat.

The next data set concerns soybeans. The data set can be described thus: Crop tolerance (selective herbicidal activity), soybeans. Type of data set: in vivo. Conditions: preemergence applications. The method, then: as §1, §2
A further data set concerns corn. The data set can be described thus: Crop tolerance (selective herbicidal activity), corn. In kind it is in vivo. Here is the method: as §1, §2
Data set [2] can be described thus: Preemergence herbicidal activity (% control) against dicot weeds. Conditions: pre-emergence, 336 h; for activity at 2241.7 g/ha: read-out: Herbicidal activity (% control), preemergence, dicots, 2 lb./A., average, about two weeks after application; for activity at 4483.4 g/ha: read-out: Herbicidal activity (% control), preemergence, dicots, 4 lb./A., average, about two weeks after application.

Data set [3] in a line: Postemergence herbicidal activity (% control) against monocot weeds. Type of data set: in vivo. Conditions: post-emergence, 336 h, average, about two weeks after application, read-out: Herbicidal activity (% control), postemergence, monocots; for activity at 2241.7 g/ha: 2 lb./A.; for activity at 4483.4 g/ha: 4 lb./A.
Excerpt: (§3) barnyardgrass (Echinochloa crusgalli) crabgrass (Digitaria spp.) nutsedge (Cyperus esculentus)
(§4) At 2 and 4 pounds per acre:
(§5) **Bermudagrass (Cynodon dactylon)
(§6) *downy brome (Bromus tectorum) foxtail (Setaria faberii)
(§7) Johnsongrass (Sorghum halepense) […]
(§8) quackgrass (Agropyron repens)
(§9) *ryegrass (Lolium perenne)
(§10) *wild oats (Avena factua)
(§11) *yellow millet (Panicum miliaceum)
as §1

The nature of data set [4]: Preemergence herbicidal activity (% control) against monocot weeds. In kind it is in vivo. Conditions: pre-emergence, 336 h, average, about two weeks after application, read-out: Herbicidal activity (% control), preemergence, monocots; for activity at 2241.7 g/ha: 2 lb./A.; for activity at 4483.4 g/ha: 4 lb./A.
Excerpt: as §3, §4, §5, §6, §7, §8, §9, §10, §11, §1

The next data set concerns peanuts. Put plainly: Crop tolerance (selective herbicidal activity), peanuts. In kind it is in vivo. Here is the method:
as §1, §2

The subject of the next data set is wheat. The data set can be described thus: Crop tolerance (selective herbicidal activity), wheat. Conditions: postemergence applications. In kind it is in vivo. Here is the method: as §1, §2
The mark [5] stands for this setting: postemergence applications or applications on transplanted rice.

As for `O=[N+]([O-])c1ccc(Oc2ccc(C(F)(F)F)cc2Cl)cc1OCC(F)(F)F` [Example 11], the activity at 4483.4 g/ha in data set [1] was determined as 99%; in [2], 98%; in data set [3], 82%; in data set [4], 81%. Further, the Tolerance to rice result in the data set on rice (setting [5]) is recorded as “Tolerance (significant tolerance (as shown by 50% or less kill of the test crop at levels of application which give more than 50% kill of many or all of the weeds of Example 73))”. Further, the Tolerance to soybeans result with soybeans is “Tolerance (significant tolerance (as shown by 50% or less kill of the test crop at levels of application which give more than 50% kill of many or all of the weeds of Example 73))”. Further, in the data set with corn (preemergence applications), the Tolerance to corn result is reported as “Tolerance (significant tolerance (as shown by 50% or less kill of the test crop at levels of application which give more than 50% kill of many or all of the weeds of Example 73))”. Moreover, the figures for the activity at 2241.7 g/ha in [2], in data set [3] and in data set [4] were 99%, 100% and 88%, respectively.

With `CN(C)c1cc(Oc2ccc(C(F)(F)F)cc2Cl)ccc1[N+](=O)[O-]` [Example 20, 2-chloro-α,α,α-trifluoro-p-tolyl-3-dimethylamino-4-nitrophenyl ether], the activity at 2241.7 g/ha in [1] stood at 97%; in data set [2] it was 93%; in data set [3], 80%; in data set [4], 80%. Besides, the activity at 4483.4 g/ha in data set [1] is 88%; in data set [2], 99%; in [3], 78%; in [4], 88%. Moreover, the Tolerance to rice entry in the data set with rice (setting [5]) is recorded as “Tolerance (significant tolerance (as shown by 50% or less kill of the test crop at levels of application which give more than 50% kill of many or all of the weeds of Example 73))”.

Regarding `Cc1cc(Oc2ccc(C(F)(F)F)cc2Cl)ccc1[N+](=O)[O-]` [Example 36], the values for the activity at 2241.7 g/ha in data set [1], in data set [3] and in data set [4] were 98%, 94% and 100%, respectively. Also, the activity at 4483.4 g/ha in data set [1] is 100%; in [2], 100%; in data set [3], 87%; in data set [4], 93%. Also, the Tolerance to peanuts result with peanuts (postemergence applications) and in the data set on peanuts (preemergence applications) was “Tolerance (significant tolerance (as shown by 50% or less kill of the test crop at levels of application which give more than 50% kill of many or all of the weeds of Example 73))” in each case. In addition, the Tolerance to corn entry in the data set with corn (postemergence applications) was “Tolerance (significant tolerance (as shown by 50% or less kill of the test crop at levels of application which give more than 50% kill of many or all of the weeds of Example 73))”. Also, the Tolerance to wheat result in the data set with wheat is “Tolerance (significant tolerance (as shown by 50% or less kill of the test crop at levels of application which give more than 50% kill of many or all of the weeds of Example 73))”.

As for `O=[N+]([O-])c1ccc(Oc2ccc(C(F)(F)F)cc2Cl)cc1Cl` [Example 37, 2-chloro-α,α,α-trifluoro-p-tolyl-3-chloro-4-nitrophenyl ether], the activity at 4483.4 g/ha was 100% in [1], 100% in [2], 92% in data set [3] and 99% in [4]. Further, the Tolerance to peanuts entry with peanuts (postemergence applications) is “Tolerance (significant tolerance (as shown by 50% or less kill of the test crop at levels of application which give more than 50% kill of many or all of the weeds of Example 73))”. The activity at 2241.7 g/ha in data set [3] and in [4] was 100% throughout.

On to `COC(=O)c1cc(Oc2ccc(C(F)(F)F)cc2Cl)ccc1[N+](=O)[O-]` [Example 49, 2-chloro-α,α,α-trifluoro-p-tolyl-3-carbomethoxy-4-nitrophenyl ether], for which the activity at 2241.7 g/ha in [1] turned out to be 100%; in data set [2] it was 100%; in data set [3], 77%; in data set [4] it was 100%. The activity at 4483.4 g/ha in [1] came out at 100%; in data set [2], 95%; in data set [3], 86%; in data set [4] it was 92%. For the same compound, the Tolerance to soybeans entry in the data set with soybeans is “Tolerance (significant tolerance (as shown by 50% or less kill of the test crop at levels of application which give more than 50% kill of many or all of the weeds of Example 73))”. The Tolerance to peanuts result in the data set on peanuts (preemergence applications) is “Tolerance (significant tolerance (as shown by 50% or less kill of the test crop at levels of application which give more than 50% kill of many or all of the weeds of Example 73))”. Besides, in the data set with corn (postemergence applications), the Tolerance to corn result is “Tolerance (significant tolerance (as shown by 50% or less kill of the test crop at levels of application which give more than 50% kill of many or all of the weeds of Example 73))”.

Take `CNC(=O)C(C)Oc1cc(Oc2ccc(C(F)(F)F)cc2Cl)ccc1[N+](=O)[O-]` (centres unmarked) [Example 52]: the activity at 2241.7 g/ha came to 100% in [1], 75% in data set [2], 93% in data set [3] and 98% in [4]. Further, the activity at 4483.4 g/ha came to 100% in data set [1], 67% in data set [2], 87% in data set [3] and 79% in data set [4]. In the data set with rice (preemergence applications), the Tolerance to rice entry is on record as “Tolerance (significant tolerance (as shown by 50% or less kill of the test crop at levels of application which give more than 50% kill of many or all of the weeds of Example 73))”. Also, the Tolerance to soybeans entry with soybeans is “Tolerance (significant tolerance (as shown by 50% or less kill of the test crop at levels of application which give more than 50% kill of many or all of the weeds of Example 73))”. Further, the Tolerance to peanuts entry in the data set with peanuts (preemergence applications) is given as “Tolerance (significant tolerance (as shown by 50% or less kill of the test crop at levels of application which give more than 50% kill of many or all of the weeds of Example 73))”. Also, the Tolerance to corn result in the data set on corn (postemergence applications) and with corn (preemergence applications) was “Tolerance (significant tolerance (as shown by 50% or less kill of the test crop at levels of application which give more than 50% kill of many or all of the weeds of Example 73))” in each case.

As for `CC(Oc1cc(Oc2ccc(C(F)(F)F)cc2Cl)ccc1[N+](=O)[O-])C(=O)N(C)C` (centres unmarked) [Example 53], the activity at 2241.7 g/ha in [1] amounted to 100%; in data set [2], 100%; in data set [3], 81%; in data set [4], 98%. The activity at 4483.4 g/ha in data set [1] was 100%; in data set [2], 83%; in data set [3] it was 79%; in data set [4], 98%. Also, the Tolerance to rice result in the data set on rice (setting [5]) is reported as “Tolerance (significant tolerance (as shown by 50% or less kill of the test crop at levels of application which give more than 50% kill of many or all of the weeds of Example 73))”. Moreover, the Tolerance to soybeans result in the data set on soybeans is on record as “Tolerance (significant tolerance (as shown by 50% or less kill of the test crop at levels of application which give more than 50% kill of many or all of the weeds of Example 73))”. The Tolerance to peanuts result in the data set on peanuts (postemergence applications) and with peanuts (preemergence applications) was “Tolerance (significant tolerance (as shown by 50% or less kill of the test crop at levels of application which give more than 50% kill of many or all of the weeds of Example 73))” in each case. In addition, the Tolerance to corn entry in the data set with corn (postemergence applications) was “Tolerance (significant tolerance (as shown by 50% or less kill of the test crop at levels of application which give more than 50% kill of many or all of the weeds of Example 73))”.

With `CCN(C(=O)NC)c1cc(Oc2ccc(C(F)(F)F)cc2Cl)ccc1[N+](=O)[O-]` [Example 55, 2-Chloro-α,α,α-trifluoro-p-tolyl-3-(3-methyl-1-ethylureido)-4-nitrophenyl ether], the figures for the activity at 2241.7 g/ha in data set [1] and in [3] were 96% and 31%, respectively. Besides, the activity at 4483.4 g/ha in data set [1] came out at 95%; in data set [2] it was 73%; in data set [3], 69%; in data set [4], 91%.

The values are drawn from patent US4419123A, “Herbicidal 4-trifluoromethyl-3'-carbon-substituted-4'-substituted diphenyl ethers” (Rohm and Haas Company, priority 1981, dated 1983).
